Experimental data as given in patent US12565680B2, “Cancer neoantigens and their utilities in cancer vaccines and TCR-based cancer immunotherapy” (THE METHODIST HOSPITAL SYSTEM, priority 2018, dated 2026).

What was measured:
135TIL [1] = assay: IFN-γ ELISA with bulk 135TIL (IVT-RNA electroporated 135EBV-B cells; peptide titration and truncation); type: cell-based, human; details: serially diluted peptides
Description: Due to low transfection efficiency of EBV-B cells, in vitro transcribed (IVT) RNA of 24 TMGs were generated and then electroporated them into 135EBV-B cells, followed by adding 135TIL cells for antigen recognition based on cytokine release assay.
(§1) 96-well tissue culture plates were coated with phosphate-buffered saline (PBS, GenDEPOT) containing 50 μg/ml poly-L-lysine (Millipore Sigma) at 37° C. 10 min later, the plates were rinsed twice with PBS. Tumor cells or 293-APCs were seeded at 5×10^4/well in the 96-well plate and cultured at 37° C., 5% CO2 for at least 4 h. For plasmid transfection, 250 ng of plasmid DNA were transfected into 293-APCs per well with 0.5 μl of Lipofectamine 2000 (Thermo Fisher Scientific) according to the manufacturer's instructions and incubated at 37° C., in 5% CO2 overnight. For peptide presentation, synthesized peptides (GeneScript) were added to each well at different final concentrations from 10^2 to 10^−4 μM and incubated at 37° C., 5% CO2. The cells transfected with plasmids or pulsed with peptides were washed with TCM twice, and then cocultured with T cells (1×10^5/well). […]
96-well microplate (Greiner Bio-one) was coated with 50 μl of PBS containing anti-human IFN-γ (Thermo Fisher Scientific, primary antibody, 1 μg/ml) per well and incubated at 4° C. overnight. […] The plate was read at OD450 nm. The concentration of IFN-γ was calculated by standard reading. […]

T-cell clones of 135TIL = assay: IFN-γ ELISA with tumor-reactive T-cell clones of 135TIL; type: cell-based, human
Source text: Thus, immunogenic antigens can be generated from various sources or mechanisms [such as alternative ORFs, noncoding regions (3′ and 5′ UTRs, introns, noncoding RNA)]. […] All other tumor-reactive CD4^+ T-cell clones and CD8^+ T-cell clones recognized the mutation-derived neoantigens. […] To identify these two antigens recognized by these two CD4^+ T-cell clones, an Ii-fusion cDNA library derived from 135 mel tumor cells was constructed using experimental procedures. The Ii-fusion cDNA library pools (approximately 100 cDNA clones per pool) were transfected into 293IMDR3/DP4 or 293IMDR4/DP4 cells, followed by co-culturing with CD4^+ T-cell clones (135-1C1 or 135-1E1). After 2×10^5 cDNA clones, positive cDNA library pools that stimulate two T-cell clones, respectively, were identified based on IFN-γ release by ELISA (FIG. 6B). The positive pools were then transformed into Stbl3™ Escherichia coli, and single bacteria colonies were picked for plasmid DNA isolation. The screening assays were repeated in the same APCs transfected with the single cDNA-containing plasmids, and identified three clones that were able to stimulate 135-1C1 T cells, and two clones that reacted with 135-1E1 T cells (FIG. 6C). […] The 135-1E1 T cell-reactive cDNA clones encoded the product translated from an alternative reading frame of CTAG2 (LAGE1b) (FIG. 6C and FIG. 7A). […] LAGE1 is a cancer-testis antigen, with over 80% amino acid sequence identical to NY-ESO-1 protein, which is the most immunogenic tumor antigen identified to date. To define the T cell epitopes, wee generated a series of deletions and truncations of 3′ UTR region of ADIPOR2 gene, and narrowed down T cell epitope to a 26 aa peptide-coding sequence that stimulate 135-1C1 T cell response (FIG. 7D). Using similar approach, T cell epitopes were narrowed down to a 69 aa peptide-coding sequence of the LAGE1b alternative ORF2 for 135-1E1 T-cell recognition (FIG. 7E).
Using systemic and multiple approaches, 8 cancer neoantigens were identified in 135 mel and 7 neoantigens in 136 mel. To understand the potential mechanisms that restrain the number of neoantigens that could induce T cell response, it was asked whether these neoantigens were equally recognized by T cells.
T-cell cloning and expansion were performed. Briefly, T-cell clones from 135TILs were generated by a limited dilution (0.3 cell/well) in 96-well plates. Allogeneic PBMCs from normal donors were irradiated (60 Gy) and then seeded as feeder cells (7×10^4/well) in TCM containing 35 ng/ml OKT3 (anti-hCD3 antibody) (R&D Systems) and 35 ng/ml anti-hCD28 antibody (R&D Systems). On day 1, recombinant IL-2 was added to the final concentration of 300 IU/ml. On day 5, half of the culture medium was replaced with fresh TCM containing recombinant IL-2, and then the medium was changed every other day or when the medium color turned yellow. On day 14, T-cell clones were harvested, counted, tested for tumor reactivity. Tumor reactive T-cell clones were further expanded.
as §1, with “(1×10^5/well). After overnight culture, 50 μl of supernatant was collected for measuring cytokine release with an ELISA assay.” for “(1×10^5/well).”

135TIL [2] = assay: TCR β CDR3 repertoire analysis; design: species or system human; details: TCRβ CDR3 profiling
Source text: To address this issue, PCDHB16 neoantigen-specific CD4^+ T cells were isolated by FACS sorting of PCDHB16-neoantigen T cells from freshly generated bulk T cells after stimulated PCDHB16 neoepitope peptide-pulsed 135EBV-B cells. Using the similar approach, MPG-specific CD8+ T cells were also purified from freshly generated bulk T cells after stimulated MPG neoepitope peptide-pulsed 135EBV-B cells. Genomic DNAs were isolated from the two purified neoantigen-specific T cell populations, as well as the parental bulk T cells, and used as templates for TCR β-chain CDR3 repertoire amplification. […] After the amplicons (from PCDHB16-, MPG-specific T cells and bulk 135TIL) were subjected to deep-sequenced via next-generation sequencing (reads>100,000 per sample), followed by bioinformatic analysis and TCR repertoire alignment. […] The relative TCR sequence frequencies that were identical to those in PCDHB16-specific T cells and MPG-specific T cells were determined in total 135TIL cell population (FIG. 10F). […]
Cytokine Secretion Assay-Detection Kit (MACS Miltenyi Biotec) was used in cell-surface IFN-γ staining based on a commercial protocol. […] Finally cells were washed with cold buffer and ready for flow cytometric analysis. […]

135TIL [3] = assay: Intracellular staining of IFN-γ after neoantigen peptide stimulation, 135TIL; type: cell-based, human
Description: T cells were stimulated by various in vitro methods, such as tumor cells, peptides or DNA encoding neoantigens, etc. and induced to release cytokines. Stimulated T cells were resuspended in 100 μl of Cytofix/Cytoperm solution (BD Biosciences) per well for microwell plates (or 250 μl for tubes) and incubated for 20 min at 4° C. for cell fixation. Fixed cells were permeabilized by washing twice in 1× Perm/Wash buffer (BD Biosciences). Then the fixed/permeabilized cells were thoroughly resuspended in 50 μl of 1× Perm/Wash buffer containing 1 μl of phycoerythrin (PE)-conjugated IFN-γ antibody (Thermo Fisher Scientific) and incubate at 4° C. for 30 min in the dark. After that the cells were washed twice with 1× Perm/Wash buffer and ready for flow cytometric analysis.

| Sequence | recognition of titrated peptides by 135TIL (IFN-γ ELISA) (135TIL [1]) | recognition of antigen peptides by specific T-cell clones (T-cell clones of 135TIL; peptide titration, 135-1C1 (ADIPOR2), 135-1E1 (LAGE1b)) | neoantigen-specific TCRs in the total 135TIL TCRs (135TIL [2]) [%] | percentage of CD8^+ tumor-reactive T-cell clones recognizing the neoantigen (T-cell clones of 135TIL; 40 clones) [%] | number of CD8^+ tumor-reactive T-cell clones recognizing the neoantigen (T-cell clones of 135TIL; of 40 clones) | share of tumor-reactive CD8^+ T cells specific for the neoantigen (135TIL [3]) [%] | CD8^+ T cells recognizing the neoantigen in the total T cell population (135TIL [3]; intracellular cytokine staining) [%] |
| --- | --- | --- | --- | --- | --- | --- | --- |
| MKLTSLMCNPVKSPFFGCVCGHVPISMCVSTCSSLPTASCALDLTVLAENSHQVGA [ADIPOR2, 56 aa reading frame in the 3′UTR of gene ADIPOR2] | little or no activity | strongly recognized | – | – | – | – | – |
| YGMYFCMNISSQEDGACVLLRALEP [MPG, immunodominant MHC-I neoantigen of patient #135] | – | – | 25.5 | 67.5 | 27 | 65 | 12.3 |
